Here are results for 18 compounds from PubChem BioAssay (NCI).

Structures are written as SMILES. Values joined by “and” are separate entries in the source; they are usually repeats but may differ in a detail not shown here. Equal values may be shown once.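 Compound exposure: 48 hours, 5 concentrations, 96-well plates. Here, GI50 denotes the concentration required for 50% inhibition of growth. TGI denotes the concentration required for complete inhibition of growth.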

One test relates to 786-0 renal. Nature of the test: inhibition of tumour cell growth, NCI panel, 48 h.
Consider `CN(C(=O)c1ccc(C(F)(F)F)cc1)c1ccc(Oc2ccc3c(c2)cc(C(=O)N2CCN(Cc4ccc(OC(F)F)cc4)CC2)n3C)nc1`, for which the GI50 was above 100 µM and the TGI was above 100 µM.

As for `O=S(=O)(CCn1c(Sc2ccccc2)c(Sc2ccccc2)c2ccccc21)c1ccccc1`, the TGI is above 100 µM.

In turn, `O=c1[nH]c(Nc2nc3ccccc3[nH]2)nc(O)c1-c1ccccc1` showed a TGI above 100 µM.

For the compound `O=C(Nc1ccc(Cl)cc1)c1cccc(NC2=C(Cl)C(=O)N(Cc3ccccc3)C2=O)c1`, the GI50 was 7.83 µM and the TGI is 20.9 µM.

For `O=C(/C=C/c1ccncc1)c1cc(Cl)ccc1O`, the GI50 is 17.9 µM and the TGI was determined as 34.1 µM.

On to `Nc1ncnc2n[nH]c(Nc3ccc(F)cc3)c12`, for which the GI50 was 19.3 µM and the TGI was above 100 µM.

`OCC#Cc1ccccc1C#Cc1ccccc1`: the GI50 is 14.6 µM and the TGI is 27.7 µM.

As for `CCN(CC)c1ccc(-c2cc(-c3cc(OC)c(OC)c(OC)c3)nc(N3CCOCC3)c2C#N)cc1`, the GI50 was 1.9 µM and the TGI amounted to 9.94 µM.

As for `CC(=O)OC1=CC(n2cc(F)c(=O)[nH]c2=O)OC(C)C1=O` (configuration not stated), the TGI was above 100 µM.

`NC1(C(=O)OCc2ccccc2)CCCC1`: the TGI was 42.8 µM.

On to `Cc1cc(/C=C/c2ccc3cc(N(C)C)ccc3[n+]2C)c(C)n1-c1ccccc1`, for which the GI50 is 0.262 µM and the TGI was determined as 1.53 µM.

Turning to `Cn1cnc([N+](=O)[O-])c1S(=O)(=O)Oc1cccc2ccccc12`, the GI50 was 14.4 µM and the TGI was found to be 29.3 µM.

The compound `CCCC(=O)OC1CC(n2cc(F)c(=O)[nH]c2=O)OC1COP(=O)(OCC(Cl)(Cl)Cl)OCC(Cl)(Cl)Cl` (configuration not stated) yielded a TGI above 100 µM.

Take `Fc1cc2[nH]ncc2c2c3c(c(-c4cn[nH]c4)nc12)CCCC3`: the GI50 was 2.38 µM and the TGI is above 28 µM.

`COc1cc(OC)cc(-c2cc(=O)c3c(OC)c(OC)c(OC)c(OC)c3o2)c1` returned a TGI above 100 µM.

As for `CSc1nc(NC2OCC(OC(C)=O)C(OC(C)=O)C2OC(C)=O)c(N=CC=Nc2c(NC3OCC(OC(C)=O)C(OC(C)=O)C3OC(C)=O)nc(SC)[nH]c2=O)c(=O)[nH]1` (configuration not stated), the TGI was above 100 µM.

For `CN(C)CCSC1=Nc2ccc(Cl)cc2C(c2ccccc2Cl)=NC1`, the GI50 was 14.3 µM and > 100 µM; the TGI was 31.5 µM and > 100 µM.

As for `O=C1OC(O)[C@@H]2[C@H]1[C@H]1CC[C@@H]2O1` (some centres not stated), the GI50 is above 100 µM and the TGI was above 100 µM.

In a further test the test system is CAKI-1 renal. Nature of the test: inhibition of tumour cell growth, NCI panel, 48 h.
In the case of `CN(C(=O)c1ccc(C(F)(F)F)cc1)c1ccc(Oc2ccc3c(c2)cc(C(=O)N2CCN(Cc4ccc(OC(F)F)cc4)CC2)n3C)nc1`, the GI50 was 2.27 µM and the TGI is above 100 µM.

In turn, `O=S(=O)(CCn1c(Sc2ccccc2)c(Sc2ccccc2)c2ccccc21)c1ccccc1` showed a TGI above 100 µM.

With `O=c1[nH]c(Nc2nc3ccccc3[nH]2)nc(O)c1-c1ccccc1`, the TGI was above 100 µM.

For the compound `O=C(Nc1ccc(Cl)cc1)c1cccc(NC2=C(Cl)C(=O)N(Cc3ccccc3)C2=O)c1`, the GI50 is 3.5 µM and the TGI amounted to 15.7 µM.

Take `O=C(/C=C/c1ccncc1)c1cc(Cl)ccc1O`: the GI50 was 14.3 µM and the TGI turned out to be 38.5 µM.

Consider `Nc1ncnc2n[nH]c(Nc3ccc(F)cc3)c12`, for which the GI50 is 4.05 µM and the TGI was above 100 µM.

For the compound `OCC#Cc1ccccc1C#Cc1ccccc1`, the GI50 was 12.2 µM and the TGI was 25.5 µM.

Turning to `CCN(CC)c1ccc(-c2cc(-c3cc(OC)c(OC)c(OC)c3)nc(N3CCOCC3)c2C#N)cc1`, the GI50 is 0.366 µM and the TGI is above 53.2 µM.

Turning to `CC(=O)OC1=CC(n2cc(F)c(=O)[nH]c2=O)OC(C)C1=O` (configuration not stated), the TGI was above 100 µM.

The compound `NC1(C(=O)OCc2ccccc2)CCCC1` registered a TGI of 47.5 µM.

Regarding `Cc1cc(/C=C/c2ccc3cc(N(C)C)ccc3[n+]2C)c(C)n1-c1ccccc1`, the GI50 was 0.722 µM and the TGI is 2.24 µM.

In the case of `Cn1cnc([N+](=O)[O-])c1S(=O)(=O)Oc1cccc2ccccc12`, the GI50 was 1.76 µM and the TGI turned out to be 4.07 µM.

In turn, `CCCC(=O)OC1CC(n2cc(F)c(=O)[nH]c2=O)OC1COP(=O)(OCC(Cl)(Cl)Cl)OCC(Cl)(Cl)Cl` (configuration not stated) gave a TGI above 31.6 µM.

With `Fc1cc2[nH]ncc2c2c3c(c(-c4cn[nH]c4)nc12)CCCC3`, the GI50 was 0.398 µM and the TGI amounted to 7.08 µM.

`COc1cc(OC)cc(-c2cc(=O)c3c(OC)c(OC)c(OC)c(OC)c3o2)c1` registered a TGI above 100 µM.

The compound `CSc1nc(NC2OCC(OC(C)=O)C(OC(C)=O)C2OC(C)=O)c(N=CC=Nc2c(NC3OCC(OC(C)=O)C(OC(C)=O)C3OC(C)=O)nc(SC)[nH]c2=O)c(=O)[nH]1` (configuration not stated) returned a TGI above 100 µM.

`CN(C)CCSC1=Nc2ccc(Cl)cc2C(c2ccccc2Cl)=NC1`: the GI50 is 15.1 µM and 79.5 µM; the TGI was 31.5 µM and > 100 µM.

On to `O=C1OC(O)[C@@H]2[C@H]1[C@H]1CC[C@@H]2O1` (some centres not stated), for which the GI50 was 71.9 µM and the TGI is above 100 µM.

A further test concerns CCRF-CEM leukemia. Nature of the test: inhibition of tumour cell growth, NCI panel, 48 h.
Turning to `CN(C(=O)c1ccc(C(F)(F)F)cc1)c1ccc(Oc2ccc3c(c2)cc(C(=O)N2CCN(Cc4ccc(OC(F)F)cc4)CC2)n3C)nc1`, the TGI is above 100 µM.

`O=S(=O)(CCn1c(Sc2ccccc2)c(Sc2ccccc2)c2ccccc21)c1ccccc1` had a TGI above 100 µM.

On to `O=c1[nH]c(Nc2nc3ccccc3[nH]2)nc(O)c1-c1ccccc1`, for which the TGI is above 100 µM.

`O=C(Nc1ccc(Cl)cc1)c1cccc(NC2=C(Cl)C(=O)N(Cc3ccccc3)C2=O)c1`: the GI50 is 2.73 µM and the TGI came to 12.3 µM.

On to `O=C(/C=C/c1ccncc1)c1cc(Cl)ccc1O`, for which the GI50 was 7.95 µM and the TGI was 36.2 µM.

Turning to `Nc1ncnc2n[nH]c(Nc3ccc(F)cc3)c12`, the GI50 was 18.4 µM and the TGI was determined as 72.4 µM.

Consider `OCC#Cc1ccccc1C#Cc1ccccc1`, for which the GI50 was 7.14 µM and the TGI worked out at 39.8 µM.

In the case of `CCN(CC)c1ccc(-c2cc(-c3cc(OC)c(OC)c(OC)c3)nc(N3CCOCC3)c2C#N)cc1`, the GI50 is 0.611 µM and the TGI is above 44.5 µM.

In turn, `CC(=O)OC1=CC(n2cc(F)c(=O)[nH]c2=O)OC(C)C1=O` (configuration not stated) gave a TGI above 100 µM.
